pEC50: −log10 of the molar value.
Tested on: Primary fibroblasts from donors with Friedreich Ataxia (FRDA)
Assay: BSO Assay (cell viability under BSO-induced oxidative stress)
Format: cell-based
Details: Homo sapiens, Fibroblast
Experimental: Primary fibroblasts were derived from donors with molecular diagnosis for Friedreich Ataxia (FRDA) and control donors with no mitochondrial disease. Cell lines were obtained from Coriell Cell Repositories (Camden, N.J.; catalog numbers GM04078, GM08402 and GM08399 respectively). All cell types were diagnosed on the molecular level for intronic […] triplet repeat length of at least 400-450 repeats using a PCR-based method. […] Cell viability was measured after the first signs of toxicity appeared in the BSO-treated controls (typically after 16 to 48 h). […] Fluorescence intensity was measured with a Gemini Spectramax XS spectrofluorimeter (Molecular Devices, Sunnyvale, Calif.) using excitation and emission wavelengths of 485 nm and 525 nm respectively.

Molecule `CCNC(=O)C(=O)[C@H](Cc1ccc(Cl)cc1)NC(=O)[C@@H](NC(=O)[C@H](Cc1ccccc1)NC(=O)CCCCC1CCS[S+]1[O-])C(C)C` (stereo partly shown) [Example 2] has a pEC50 of 6.10.
